From patent publication US12410152B2, “Oxazole and thioazole-type cullin ring ubiquitin ligase compounds and uses thereof” (Proxygen GmbH, priority 2019, dated 2025)

Target: T1, CDK12:CCNK and DDB1:CUL4B (Homo sapiens, UniProt Q16531+Q9NYV4)
T1 construct: expressed in transfected cells; host or cells: 293T (HEK) cells, transient transfection
Experiment: Biotin proximity labeling with miniTurbo in live cells
Assay type: cell-based
Conditions: HEK/293T cells with DDB1- or CDK12-mTurbo fusions, carfilzomib 10 μM
Method: The direct, drug-induced association of CDK12:CCNK and DDB1:CUL4B was further assessed in a cellular assay based on enzyme-catalyzed proximity labeling via the efficient biotin ligase miniTurbo (mTurbo) (Branon, T. C. et al. Efficient proximity labeling in living cells and organisms with TurboID. Nat Biotechnol 36, 880-887, doi:10.1038/nbt.4201 (2018)) was performed. This assay enables recording dynamic changes in molecular proximity of an mTurbo-tagged bait protein by streptavidin purification of covalently biotinylated, proximal proteins. For this purpose, c-terminally tagged DDB1, or CDK12 mTurbo-fusions were transiently expressed in HEK cells. Cells were treated for one hour with C020772.1 or vehicle (DMSO) control, including a 30 minute biotin labeling pulse (FIG. 20 g, h). […] Vice-versa, DDB1 was only identified as CDK12 interactor after drug treatment, but was not purified after vehicle-control treatment (FIG. 20 h). […]
One 10-cm culture plate of 293T cells (70%-80% confluent) was transfected with 2 μg of pLenti_DDB1_miniTurbo_V5 or pLenti_CDK12_miniTurbo_V5 using Lipofectamine 2000 (Invitrogen, 11668019). […] Eluates were analyzed by WB. Quantification was performed with ImageJ.

T1 sequence (Q9NYV4 whole entry): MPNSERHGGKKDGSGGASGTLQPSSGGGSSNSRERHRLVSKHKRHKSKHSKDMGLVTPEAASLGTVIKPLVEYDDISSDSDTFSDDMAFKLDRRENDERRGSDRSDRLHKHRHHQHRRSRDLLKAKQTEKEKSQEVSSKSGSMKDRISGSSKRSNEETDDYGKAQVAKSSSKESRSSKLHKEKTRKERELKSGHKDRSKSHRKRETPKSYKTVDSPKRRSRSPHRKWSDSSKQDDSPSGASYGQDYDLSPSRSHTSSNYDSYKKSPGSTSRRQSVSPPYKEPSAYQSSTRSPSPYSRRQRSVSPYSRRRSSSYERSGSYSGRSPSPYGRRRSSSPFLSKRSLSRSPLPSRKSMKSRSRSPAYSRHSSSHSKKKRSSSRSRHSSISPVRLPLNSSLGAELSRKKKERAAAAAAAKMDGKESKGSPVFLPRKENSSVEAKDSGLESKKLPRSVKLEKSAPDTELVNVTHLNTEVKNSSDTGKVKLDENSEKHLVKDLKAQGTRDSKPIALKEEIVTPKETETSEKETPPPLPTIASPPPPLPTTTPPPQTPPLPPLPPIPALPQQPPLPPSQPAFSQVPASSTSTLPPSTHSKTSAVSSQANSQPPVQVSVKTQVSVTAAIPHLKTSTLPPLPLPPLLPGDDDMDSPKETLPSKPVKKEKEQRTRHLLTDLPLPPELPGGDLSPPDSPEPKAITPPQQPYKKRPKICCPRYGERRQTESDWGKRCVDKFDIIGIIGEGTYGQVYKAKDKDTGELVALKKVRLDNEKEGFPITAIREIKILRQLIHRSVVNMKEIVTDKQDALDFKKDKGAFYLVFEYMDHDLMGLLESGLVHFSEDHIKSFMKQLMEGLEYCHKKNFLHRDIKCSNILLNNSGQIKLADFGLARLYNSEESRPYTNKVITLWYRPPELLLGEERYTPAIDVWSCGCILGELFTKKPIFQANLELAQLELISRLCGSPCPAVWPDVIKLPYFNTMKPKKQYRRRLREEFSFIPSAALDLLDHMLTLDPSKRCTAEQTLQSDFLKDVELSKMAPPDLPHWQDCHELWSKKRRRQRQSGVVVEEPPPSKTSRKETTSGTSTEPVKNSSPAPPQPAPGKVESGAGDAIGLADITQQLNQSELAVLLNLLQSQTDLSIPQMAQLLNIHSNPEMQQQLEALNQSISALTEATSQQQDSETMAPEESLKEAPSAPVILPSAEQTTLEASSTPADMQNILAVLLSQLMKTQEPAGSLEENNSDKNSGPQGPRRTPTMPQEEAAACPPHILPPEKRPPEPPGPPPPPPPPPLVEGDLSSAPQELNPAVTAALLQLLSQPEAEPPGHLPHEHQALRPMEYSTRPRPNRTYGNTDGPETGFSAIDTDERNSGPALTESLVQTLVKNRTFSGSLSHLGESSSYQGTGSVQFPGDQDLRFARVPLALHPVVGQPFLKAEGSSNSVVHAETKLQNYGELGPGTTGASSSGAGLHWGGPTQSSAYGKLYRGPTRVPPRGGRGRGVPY
T1 sequence (O75909 whole entry partner): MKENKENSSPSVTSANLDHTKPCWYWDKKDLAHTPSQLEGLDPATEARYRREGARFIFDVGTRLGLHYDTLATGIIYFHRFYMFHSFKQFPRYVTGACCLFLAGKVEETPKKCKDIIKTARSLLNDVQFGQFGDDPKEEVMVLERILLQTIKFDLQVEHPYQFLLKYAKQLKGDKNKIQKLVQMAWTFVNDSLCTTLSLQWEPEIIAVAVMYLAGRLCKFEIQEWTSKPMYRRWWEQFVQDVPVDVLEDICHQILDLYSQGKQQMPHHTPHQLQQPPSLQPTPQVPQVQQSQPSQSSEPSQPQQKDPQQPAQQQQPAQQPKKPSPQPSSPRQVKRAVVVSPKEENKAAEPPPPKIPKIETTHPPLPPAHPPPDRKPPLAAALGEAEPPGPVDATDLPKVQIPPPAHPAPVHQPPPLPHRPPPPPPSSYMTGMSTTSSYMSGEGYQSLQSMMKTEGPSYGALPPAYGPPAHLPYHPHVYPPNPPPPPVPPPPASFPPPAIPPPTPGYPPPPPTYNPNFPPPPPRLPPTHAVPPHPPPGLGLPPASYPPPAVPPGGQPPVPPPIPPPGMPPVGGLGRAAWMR
T1 sequence (Q16531 whole entry): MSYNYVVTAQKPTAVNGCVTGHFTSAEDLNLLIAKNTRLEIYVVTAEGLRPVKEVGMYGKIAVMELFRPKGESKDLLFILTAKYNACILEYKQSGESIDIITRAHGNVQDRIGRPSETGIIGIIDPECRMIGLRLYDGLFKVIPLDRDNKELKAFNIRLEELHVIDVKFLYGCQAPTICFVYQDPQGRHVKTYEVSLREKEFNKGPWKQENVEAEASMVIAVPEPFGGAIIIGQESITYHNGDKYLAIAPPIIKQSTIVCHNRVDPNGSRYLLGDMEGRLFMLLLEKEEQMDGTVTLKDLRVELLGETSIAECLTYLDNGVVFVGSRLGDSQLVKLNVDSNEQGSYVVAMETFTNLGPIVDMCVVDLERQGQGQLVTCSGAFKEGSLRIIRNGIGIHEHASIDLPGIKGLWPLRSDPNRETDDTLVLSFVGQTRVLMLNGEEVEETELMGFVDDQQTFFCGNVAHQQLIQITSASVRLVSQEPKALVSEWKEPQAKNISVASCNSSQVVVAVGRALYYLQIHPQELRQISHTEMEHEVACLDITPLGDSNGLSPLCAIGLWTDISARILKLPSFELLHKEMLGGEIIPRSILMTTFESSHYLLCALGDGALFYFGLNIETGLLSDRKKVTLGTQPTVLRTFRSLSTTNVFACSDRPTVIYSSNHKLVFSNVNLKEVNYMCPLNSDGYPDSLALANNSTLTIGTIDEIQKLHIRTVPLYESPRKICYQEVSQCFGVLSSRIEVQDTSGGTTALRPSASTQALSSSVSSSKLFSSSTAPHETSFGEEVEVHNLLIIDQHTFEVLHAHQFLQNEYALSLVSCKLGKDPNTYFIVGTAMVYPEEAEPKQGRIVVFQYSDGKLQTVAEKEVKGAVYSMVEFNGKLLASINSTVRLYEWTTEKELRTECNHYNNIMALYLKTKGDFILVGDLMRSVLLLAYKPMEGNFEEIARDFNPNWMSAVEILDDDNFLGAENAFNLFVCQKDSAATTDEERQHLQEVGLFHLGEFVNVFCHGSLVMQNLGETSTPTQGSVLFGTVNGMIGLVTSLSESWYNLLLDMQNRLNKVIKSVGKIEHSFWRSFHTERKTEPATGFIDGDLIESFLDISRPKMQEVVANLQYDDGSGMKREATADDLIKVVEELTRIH

Structure (SMILES): O=C(CSc1nnc2c(n1)[nH]c1ccccc12)Nc1ccc(Cl)cn1 [IC020772.1]
- drug-induced CDK12-DDB1 proximity (biotin labeling): CDK12 interactions with DDB1 were exclusively identified in the presence of IC020772.1
